# What was measured:
# [1] = test system: glucocorticoid signaling genes in OCI-LY19 cells; test: RT2 Glucocorticoid Signaling PCR array; assay type: cell-based; details: compared to DMSO; OCI cell line; 4 days
# [2] = test system: glucocorticoid signaling genes in RL cells; test: RT2 Glucocorticoid Signaling PCR array; assay type: cell-based; details: 4 days, 1 μM Cpd44, Pred 10-fold below 4-day IC50
# WSU-DLCL2 cells = test: Medium throughput combination proliferation assay (CellTiter-Glo, Chou-Talalay CI / potency shift)
structure (smiles),measurement,setting,value
CCN(c1cc(-c2ccc(CN3CCOCC3)cc2)cc(C(=O)NCc2c(C)cc(C)[nH]c2=O)c1C)C1CCOCC1 [Compound 44],"ΔΔCT, ADARB1",[1],−0.788
same,"ΔΔCT, ARID5B",[1],0.231
same,"ΔΔCT, PDCD7",[1],0.024
same,"ΔΔCT, SPHK1",[1],0.018
same,ACTB Ct value,[2],15.664
same,ACTB ΔCT (B2M),[2],−3.694
same,ADARB1 Ct value,[2],26.650
same,ADARB1 ΔCT (B2M),[2],7.292
same,AFF1 Ct value,[2],26.820
same,AFF1 ΔCT (B2M),[2],7.462
same,AK2 Ct value,[2],20.270
same,AK2 ΔCT (B2M),[2],0.912
same,AMPD3 Ct value,[2],27.191
same,AMPD3 ΔCT (B2M),[2],7.833
same,ANGPTL4 Ct value,[2],29.820
same,ANGPTL4 ΔCT (B2M),[2],10.462
same,ANXA4 Ct value,[2],24.395
same,ANXA4 ΔCT (B2M),[2],5.037
same,ARID5B Ct value,[2],27.333
same,ARID5B ΔCT (B2M),[2],7.975
same,ASPH Ct value,[2],23.466
same,ASPH ΔCT (B2M),[2],4.108
same,ATF4 Ct value,[2],18.269
same,ATF4 ΔCT (B2M),[2],−1.089
same,B2M Ct value,[2],19.358
same,B2M ΔCT (B2M),[2],0.000
same,BCL6 Ct value,[2],20.289
same,BCL6 ΔCT (B2M),[2],0.931
same,CEBPA Ct value,[2],36.511
same,CEBPA ΔCT (B2M),[2],17.153
same,CEBPB Ct value,[2],23.765
same,CEBPB ΔCT (B2M),[2],4.407
same,COL4A2 Ct value,[2],31.782
same,COL4A2 ΔCT (B2M),[2],12.424
same,CREB1 Ct value,[2],23.217
same,CREB1 ΔCT (B2M),[2],3.859
same,CREB3 Ct value,[2],24.178
same,CREB3L4 Ct value,[2],23.500
same,CREB3L4 ΔCT (B2M),[2],4.142
same,CREB3 ΔCT (B2M),[2],4.820
same,CYB561 Ct value,[2],38.452
same,CYB561 ΔCT (B2M),[2],19.094
same,DDIT4 Ct value,[2],22.679
same,DDIT4 ΔCT (B2M),[2],3.321
same,DUSP1 Ct value,[2],25.422
same,DUSP1 ΔCT (B2M),[2],6.064
same,EDN1 Ct value,[2],31.815
same,EDN1 ΔCT (B2M),[2],12.457
same,EHD3 Ct value,[2],24.572
same,EHD3 ΔCT (B2M),[2],5.214
same,ERRFI1 Ct value,[2],31.705
same,ERRFI1 ΔCT (B2M),[2],12.347
same,FKBP5 Ct value,[2],21.757
same,FKBP5 ΔCT (B2M),[2],2.399
same,FOSL2 Ct value,[2],30.761
same,FOSL2 ΔCT (B2M),[2],11.403
same,GAPDH Ct value,[2],15.720
same,GAPDH ΔCT (B2M),[2],−3.638
same,GDPD1 Ct value,[2],27.394
same,GDPD1 ΔCT (B2M),[2],8.036
same,GHRHR Ct value,[2],37.546
same,GHRHR ΔCT (B2M),[2],18.188
same,GLUL Ct value,[2],28.738
same,GLUL ΔCT (B2M),[2],9.380
same,GOT1 Ct value,[2],22.584
same,GOT1 ΔCT (B2M),[2],3.226
same,H6PD Ct value,[2],25.012
same,H6PD ΔCT (B2M),[2],5.654
same,HNRPLL Ct value,[2],22.844
same,HNRPLL ΔCT (B2M),[2],3.486
same,HPRT1 Ct value,[2],22.013
same,HPRT1 ΔCT (B2M),[2],2.655
same,IL1RN Ct value,[2],28.405
same,IL1RN ΔCT (B2M),[2],9.047
same,IL6R Ct value,[2],29.246
same,IL6R ΔCT (B2M),[2],9.888
same,IL10 Ct value,[2],31.498
same,IL10 ΔCT (B2M),[2],12.140
same,KLF13 Ct value,[2],22.854
same,KLF13 ΔCT (B2M),[2],3.496
same,MERTK Ct value,[2],30.691
same,MERTK ΔCT (B2M),[2],11.333
same,MT1E Ct value,[2],34.215
same,MT1E ΔCT (B2M),[2],14.857
same,MT2A Ct value,[2],24.279
same,MT2A ΔCT (B2M),[2],4.921
same,NFKBIA Ct value,[2],23.710
same,NFKBIA ΔCT (B2M),[2],4.352
same,NR3C1 Ct value,[2],22.616
same,NR3C1 ΔCT (B2M),[2],3.258
same,PDCD7 Ct value,[2],24.406
same,PDCD7 ΔCT (B2M),[2],5.048
same,PDP1 Ct value,[2],25.387
same,PDP1 ΔCT (B2M),[2],6.029
same,PER1 Ct value,[2],25.492
same,PER1 ΔCT (B2M),[2],6.134
same,PER2 Ct value,[2],24.378
same,PER2 ΔCT (B2M),[2],5.020
same,PIK3R1 Ct value,[2],23.908
same,PIK3R1 ΔCT (B2M),[2],4.550
same,PLEKHF1 Ct value,[2],30.520
same,PLEKHF1 ΔCT (B2M),[2],11.162
same,POU2F1 Ct value,[2],24.243
same,POU2F1 ΔCT (B2M),[2],4.885
same,POU2F2 Ct value,[2],21.769
same,POU2F2 ΔCT (B2M),[2],2.411
same,RASA3 Ct value,[2],26.279
same,RASA3 ΔCT (B2M),[2],6.921
same,RGS2 Ct value,[2],25.721
same,RGS2 ΔCT (B2M),[2],6.363
same,RPLP0 Ct value,[2],14.837
same,RPLP0 ΔCT (B2M),[2],−4.521
same,SESN1 Ct value,[2],24.425
same,SESN1 ΔCT (B2M),[2],5.067
same,SGK1 Ct value,[2],26.262
same,SGK1 ΔCT (B2M),[2],6.904
same,SLC19A2 Ct value,[2],25.536
same,SLC19A2 ΔCT (B2M),[2],6.178
same,SNTA1 Ct value,[2],25.554
same,SNTA1 ΔCT (B2M),[2],6.196
same,SPHK1 Ct value,[2],31.119
same,SPHK1 ΔCT (B2M),[2],11.761
same,SPSB1 Ct value,[2],26.285
same,SPSB1 ΔCT (B2M),[2],6.927
same,STAT5A Ct value,[2],22.769
same,STAT5A ΔCT (B2M),[2],3.411
same,STAT5B Ct value,[2],22.683
same,STAT5B ΔCT (B2M),[2],3.325
same,TBL1XR1 Ct value,[2],21.663
same,TBL1XR1 ΔCT (B2M),[2],2.305
same,TNF Ct value,[2],24.712
same,TNF ΔCT (B2M),[2],5.354
same,TNFAIP3 Ct value,[2],26.896
same,TNFAIP3 ΔCT (B2M),[2],7.538
same,TSC22D3 Ct value,[2],23.300
same,TSC22D3 ΔCT (B2M),[2],3.942
same,USP2 Ct value,[2],21.420
same,USP2 ΔCT (B2M),[2],2.062
same,USP54 Ct value,[2],26.364
same,USP54 ΔCT (B2M),[2],7.006
same,VDR Ct value,[2],27.736
same,VDR ΔCT (B2M),[2],8.378
same,ZFP36 Ct value,[2],24.374
same,ZFP36 ΔCT (B2M),[2],5.016
same,ZHX3 Ct value,[2],29.785
same,ZHX3 ΔCT (B2M),[2],10.427
same,ZNF281 Ct value,[2],23.667
same,ZNF281 ΔCT (B2M),[2],4.309
same,AFF1 ΔΔCT,[2]; vs DMSO,−2.006
same,ATF4 ΔΔCT,[2]; vs DMSO,0.003
same,CEBPB ΔΔCT,[2]; vs DMSO,−0.004
same,CREB3L4 ΔΔCT,[2]; vs DMSO,−0.760
same,HNRPLL ΔΔCT,[2]; vs DMSO,0.309
same,LOX ΔΔCT,[2]; vs DMSO,−0.580
same,NFKBIA ΔΔCT,[2]; vs DMSO,0.854
same,NR3C1 ΔΔCT,[2]; vs DMSO,0.067
same,PDCD7 ΔΔCT,[2]; vs DMSO,0.006
same,PLEKHF1 ΔΔCT,[2]; vs DMSO,0.050
same,POU2F1 ΔΔCT,[2]; vs DMSO,−0.027
same,POU2F2 ΔΔCT,[2]; vs DMSO,−0.584
same,RASA3 ΔΔCT,[2]; vs DMSO,−0.009
same,SNTA1 ΔΔCT,[2]; vs DMSO,0.040
same,STAT5A ΔΔCT,[2]; vs DMSO,0.001
same,STAT5B ΔΔCT,[2]; vs DMSO,−0.094
same,ZFP36 ΔΔCT,[2]; vs DMSO,−0.036
same,ZNF281 ΔΔCT,[2]; vs DMSO,0.046
same,maximum reduction in Compound 44 IC50 with Prednisolone,WSU-DLCL2 cells; WSU-DLCL2 (FIG. 3A),24 fold
same,potency enhancement of Compound 44 at biologically relevant concentration of Dexamethasone,"WSU-DLCL2 cells; WSU-DLCL2, 100 nM Dexamethasone",15 fold
same,potency enhancement of Compound 44 at biologically relevant concentration of Prednisolone,"WSU-DLCL2 cells; WSU-DLCL2, 1 μM Prednisolone",7 fold
